Laboratory results as given in patent US8013159B2, “Quinoline derivatives as EP4 antagonists” (Merck Canada Inc., priority 2005, dated 2011).
pIC50: −log10 of the molar value.

Target: T1, EP4 receptor (Homo sapiens, UniProt P35408)
T1 construct: expressed in transfected cells; membranes prepared by differential centrifugation
Assay: Prostanoid receptor binding assay (EP4), membranes of transfected HEK 293(ebna) cells
Details: representative data, read-out: Potency in Binding Assay
Method: Prostanoid receptor cDNAs corresponding to full length coding sequences are subcloned into the appropriate sites of mammalian expression vectors and transfected into HEK 293(ebna) cells. HEK 293(ebna) cells expressing the individual cDNAs are grown under selection and individual colonies are isolated after 2-3 weeks of growth using the cloning ring method and subsequently expanded into clonal cell lines.
Transfected HEK 293(ebna) cells are maintained in culture, harvested and membranes are prepared by differential centrifugation, following lysis of the cells in the presence of protease inhibitors, for use in receptor binding assays. Prostanoid receptor binding assays (for DP1, DP2 (CRTH2), EP 1, EP2, EP3-11, EP4, FP, IP, and TP) are performed in 10 mM MES/KOH (pH 6.0) (EPs, FP and TP) or 10 mM HEPES/KOH (pH 7.4) (DPs and IP), containing 1 mM EDTA, 2.5-30 mM divalent cation and the appropriate radioligand. Synthetic compounds are added in dimethylsulfoxide which is kept constant at 1% (v/v) in all incubations. The reaction is initiated by addition of membrane protein. Non-specific binding is determined in the presence of 10 μM of the corresponding non-radioactive prostanoid. Incubations are conducted for 60-90 min at room temperature or 30° C. and terminated by rapid filtration. Specific binding is calculated by subtracting non specific binding from total binding. The residual specific binding at each ligand concentration is calculated and expressed as a function of ligand concentration in order to construct sigmoidal concentration-response curves. The binding affinity of the compounds is determined by calculating the equilibrium inhibition constant (Ki) from the equation Ki=InPt/1+[radioligand]/Kd where Kd is the equilibrium dissociation constant for the radioligand:receptor interaction and InPt is the inflection point of the dose-response curves.

T1 sequence (P35408 whole entry): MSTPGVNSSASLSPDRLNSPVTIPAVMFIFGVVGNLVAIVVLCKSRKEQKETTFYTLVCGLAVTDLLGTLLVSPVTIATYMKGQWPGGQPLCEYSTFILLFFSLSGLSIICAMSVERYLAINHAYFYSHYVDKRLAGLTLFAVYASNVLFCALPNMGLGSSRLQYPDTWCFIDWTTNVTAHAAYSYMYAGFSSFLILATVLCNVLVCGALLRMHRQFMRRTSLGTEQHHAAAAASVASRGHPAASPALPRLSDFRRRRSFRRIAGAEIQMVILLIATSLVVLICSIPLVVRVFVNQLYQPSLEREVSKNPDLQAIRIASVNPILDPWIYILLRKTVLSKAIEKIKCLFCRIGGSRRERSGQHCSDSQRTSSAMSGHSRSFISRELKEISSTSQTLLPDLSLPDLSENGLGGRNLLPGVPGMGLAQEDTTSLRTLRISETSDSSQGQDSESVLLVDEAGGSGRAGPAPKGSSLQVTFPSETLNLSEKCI

SMILES | pIC50
COc1cccc(OC)c1C1(C(=O)NS(=O)(=O)Cc2ccc(N3Cc4c(c(OCC(F)(F)F)c5cccnc5c4OCC(F)(F)F)C3=O)c(C)c2)CC1 [Example 33, (1-(2,6-dimethoxyphenyl)-N-({3-methyl-4-[6-oxo-5,9-bis(2,2,2-trifluoroethoxy)-6,8-dihydro-7H-pyrrolo[3,4-g]quinolin-7-yl]benzyl}sulfonyl)cyclopropanecarboxamide)] | 9.08
CCOc1c2c(c(OCC)c3ncccc13)CN(c1ccc(CS(=O)(=O)NC(=O)Cc3ccccc3OC)cc1C)C2=O [Example 1, N-{[4-(5,9-diethoxy-6-oxo-6,8-dihydro-7H-pyrrolo[3,4-g]quinolin-7-yl)-3-methylbenzyl]sulfonyl}-2-(2-methoxyphenyl)acetamide] | 9.33
CCOc1c2c(c(OCC)c3ncccc13)CN(c1ccc(CS(=O)(=O)NC(=O)Cc3cccc4ccccc34)cc1C)C2=O [Example 19, N-{[4-(5,9-diethoxy-6-oxo-6,8-dihydro-7H-pyrrolo[3,4-g]quinolin-7-yl)-3-methylbenzyl]sulfonyl}-2-(1-naphthyl)acetamide] | 9.14
CCOc1c2c(c(OCC)c3ncccc13)CN(c1ccc(CS(=O)(=O)NC(=O)Cc3ccccc3C(F)(F)F)cc1C)C2=O [Example 7, N-{[4-(5,9-diethoxy-6-oxo-6,8-dihydro-7H-pyrrolo[3,4-g]quinolin-7-yl)-3-methylbenzyl]sulfonyl}-2-[2-(trifluoromethyl)phenyl]acetamide] | 9.38

More lines, now with the values ahead:

pIC50 | SMILES
9.21 | COc1cccc(OC)c1C1(C(=O)NS(=O)(=O)Cc2ccc(N3Cc4c(c(OCC(F)(F)F)c5cccnc5c4OCC(F)(F)F)C3=O)c(Cl)c2)CC1 [Example 63, N-({3-chloro-4-[6-oxo-5,9-bis(2,2,2-trifluoroethoxy)-6,8-dihydro-7H-pyrrolo[3,4-g]quinolin-7-yl]benzyl}sulfonyl)-1-(2,6-dimethoxyphenyl)cyclopropane-carboxamide]
9.12 | CCOc1c2c(c(OCC)c3ncccc13)CN(c1ccc(CS(=O)(=O)NC(=O)C3(c4ccc(Cl)cc4Cl)CC3)cc1C)C2=O [Example 39, 1-(2,4-dichlorophenyl)-N-{[4-(5,9-diethoxy-6-oxo-6,8-dihydro-7H-pyrrolo[3,4-g]quinolin-7-yl)-3-methylbenzyl]sulfonyl}cyclopropane-carboxamide]
